Source: the supplement of paper PMC4862054

How the values were obtained:
Details in all cases: incubation time: 72 h
MDA-MB-453 [1] = experiment: normalised response (% of control), CellTiter-Glo; higher = more viable cells (100 = DMSO, 0 = benzethonium chloride kill control)
Summary of the method: (§1)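 Normalised signals at single concentrations make up the values. They come from breast cancer cell lines seeded (20 µl suspension) into 384-well plates with compound at 5 concentrations in 10-fold steps over a compound-specific 10,000-fold range, incubated 72 h, and read for CellTox Green fluorescence then CellTiter-Glo luminescence. Each plate was normalised to 0.1 % DMSO (100) and a positive kill control (0).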

MDA-MB-468 [2] = experiment: as above
Summary of the method: as §1

MDA-MB-436 [3] = experiment: as above
Summary of the method: as §1

Hs578T [4] = experiment: as above
Summary of the method: as §1

HCC1937 [5] = experiment: as above
Summary of the method: as §1

BT-474 [6] = experiment: as above
Summary of the method: as §1

SK-BR-3 [7] = experiment: as above
Summary of the method: as §1

BT-549 [8] = experiment: as above
Summary of the method: as §1

CAL-120 [9] = experiment: as above
Summary of the method: as §1

MDA-MB-231 [10] = experiment: as above
Summary of the method: as §1

MFM-223 [11] = experiment: as above
Summary of the method: as §1

CAL-148 [12] = experiment: as above
Summary of the method: as §1

HCC1599 [13] = experiment: as above
Summary of the method: as §1

CAL-51 [14] = experiment: as above
Summary of the method: as §1

DU-4475 [15] = experiment: as above
Summary of the method: as §1

CAL-85-1 [16] = experiment: as above
Summary of the method: as §1

HDQ-P1 [17] = experiment: as above
Summary of the method: as §1

HCC1143 [18] = experiment: as above
Summary of the method: as §1

MCF-10A = experiment: as above
Summary of the method: as §1

MDA-MB-453 [19] = experiment: normalised viability (% of control), CellTiter-Blue; higher = more viable cells (100 = DMSO, 0 = benzethonium chloride kill control)
Summary of the method: (§2)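 After 72 h on compound-loaded 384-well plates, breast cancer cell lines received 2.5 µl CellTiter-Blue reagent for 2 h at 37 °C. Fluorescence at 560/590 nm was scaled per plate so that vehicle was 100 and a positive kill control was 0. The value stands for normalised viability at a single listed concentration of the series.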

MDA-MB-468 [20] = experiment: as above
Summary of the method: as §2

MDA-MB-436 [21] = experiment: as above
Summary of the method: as §2

Hs578T [22] = experiment: as above
Summary of the method: as §2

HCC1937 [23] = experiment: as above
Summary of the method: as §2

BT-474 [24] = experiment: as above
Summary of the method: as §2

SK-BR-3 [25] = experiment: as above
Summary of the method: as §2

BT-549 [26] = experiment: as above
Summary of the method: as §2

CAL-120 [27] = experiment: as above
Summary of the method: as §2

MDA-MB-231 [28] = experiment: as above
Summary of the method: as §2

MFM-223 [29] = experiment: as above
Summary of the method: as §2

CAL-148 [30] = experiment: as above
Summary of the method: as §2

HCC1599 [31] = experiment: as above
Summary of the method: as §2

CAL-51 [32] = experiment: as above
Summary of the method: as §2

DU-4475 [33] = experiment: as above
Summary of the method: as §2

CAL-85-1 [34] = experiment: as above
Summary of the method: as §2

HDQ-P1 [35] = experiment: as above
Summary of the method: as §2

HCC1143 [36] = experiment: as above
Summary of the method: as §2

Compound | normalised response (MDA-MB-453 [1]) [%] | normalised response (MDA-MB-468 [2]) [%] | normalised response (MDA-MB-436 [3]) [%] | normalised response (Hs578T [4]) [%] | normalised response (HCC1937 [5]) [%] | normalised response (BT-474 [6]) [%] | normalised response (SK-BR-3 [7]) [%] | normalised response (BT-549 [8]) [%] | normalised response (CAL-120 [9]) [%] | normalised response (MDA-MB-231 [10]) [%] | normalised response (MFM-223 [11]) [%] | normalised response (CAL-148 [12]) [%] | normalised response (HCC1599 [13]) [%] | normalised response (CAL-51 [14]) [%] | normalised response (DU-4475 [15]) [%] | normalised response (CAL-85-1 [16]) [%] | normalised response (HDQ-P1 [17]) [%] | normalised response (HCC1143 [18]) [%] | normalised response (MCF-10A) [%] | normalised viability (MDA-MB-453 [19]) [%] | normalised viability (MDA-MB-468 [20]) [%] | normalised viability (MDA-MB-436 [21]) [%] | normalised viability (Hs578T [22]) [%] | normalised viability (HCC1937 [23]) [%] | normalised viability (BT-474 [24]) [%] | normalised viability (SK-BR-3 [25]) [%] | normalised viability (BT-549 [26]) [%] | normalised viability (CAL-120 [27]) [%] | normalised viability (MDA-MB-231 [28]) [%] | normalised viability (MFM-223 [29]) [%] | normalised viability (CAL-148 [30]) [%] | normalised viability (HCC1599 [31]) [%] | normalised viability (CAL-51 [32]) [%] | normalised viability (DU-4475 [33]) [%] | normalised viability (CAL-85-1 [34]) [%] | normalised viability (HDQ-P1 [35]) [%] | normalised viability (HCC1143 [36]) [%]
COCC[n+]1c2c(n(Cc3cnccn3)c1C)C(=O)c1ccccc1C2=O [YM155] (1 nM) | 86.2 | 93.6 | 81.3 | 92.5 | 89.8 | 86.8 | 80.6 | 96 | 94.7 | 99.6 | 86.8 | 93.3 | 84.7 | 119 | 94.7 | 89.6 | 109 | 88.8 | 82.1 | 93.3 | 85.3 | 101 | 107 | 90.1 | 103 | 94.5 | 102 | 99.2 | 83 | 98.8 | 105 | 136 | 92.4 | 108 | 107 | 81.3 | 114
O=C(Nc1cccnc1)N1CCC(Cc2cccc(Oc3ccc(C(F)(F)F)cn3)c2)CC1 [PF-3845] (1 nM) | 117 | 97.9 | 105 | 106 | 98.4 | 98.6 | 113 | 107 | 107 | 110 | 110 | 114 | 95.8 | 89.8 | 95.8 | 101 | 103 | 108 | 113 | 103 | 104 | 99.8 | 135 | 91.6 | 70.3 | 123 | 111 | 86.7 | 114 | 91.9 | 106 | 98.9 | 98.4 | 92.1 | 89 | 145 | 92.8
CO[C@H]1C[C@@H]2CC[C@@H](C)[C@@](O)(O2)C(=O)C(=O)N2CCCC[C@H]2C(=O)O[C@H]([C@H](C)C[C@@H]2CC[C@@H](OP(C)(C)=O)[C@H](OC)C2)CC(=O)[C@H](C)/C=C(\C)[C@@H](O)[C@@H](OC)C(=O)[C@H](C)C[C@H](C)/C=C/C=C/C=C/1C [Ridaforolimus] (0.1 nM) | 96.3 | 96.5 | 98.1 | 97.7 | 93.1 | 99.6 | 105 | 91.2 | 101 | 99.3 | 101 | 104 | 96.5 | 114 | 105 | 101 | 94.1 | 102 | 105 | 93 | 96.8 | 105 | 97.7 | 108 | 94 | 81.8 | 91 | 84.8 | 112 | 82.2 | 99.4 | 104 | 97.2 | 100 | 82.1 | 78.4 | 88
NC(=O)c1ccc(I)c([N+](=O)[O-])c1 [Iniparib] (1 nM) | 86.2 | 94.8 | 87.1 | 90.9 | 93.5 | 83.2 | 76.7 | 108 | 96.5 | 90.9 | 84.2 | 83.8 | 101 | 128 | 93.8 | 94.6 | 92.5 | 87.8 | 77.3 | 94.5 | 99.1 | 108 | 116 | 130 | 92.8 | 92.1 | 113 | 85.1 | 98.9 | 103 | 93.2 | 87.8 | 95 | 87.6 | 86 | 104 | 97.1
